Source: the supplement of paper PMC11919725

Tests used:
Jurkat [1] = test: cytotoxicity relative to DMSO, 18 h (ratio); higher = less cell death (drugs called cytotoxic fall below 1)
Procedure, shortened: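 Fluorescence was imaged at ×10, five images per well, every hour for 3 h, in 96-well plates holding 100 µl of treated cell suspension and IncuCyte Cytotox Dye at 250 nM final. Before plating, Jurkat cells or primary CD4+/CD8+ T cells (naive, or activated 48 h with CD3/CD28 Dynabeads) had been treated for 18 h with compound across 1 nM–10 µM in log10 steps at 37 °C, 5% CO2. Cytotoxicity values were based on these IncuCyte signals after confluency correction and normalisation to the mean of control wells.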

Jurkat [2] = test: metabolic activity relative to DMSO, 18 h (ratio); higher = more viable
Procedure, shortened: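 Jurkat cells and primary CD4+/CD8+ T cells, naive or activated for 48 h on CD3/CD28 Dynabeads, were incubated for 18 h with compound at 1 nM–10 µM. Fluorescence was read 3.5 h after alamarBlue addition (10% v/v final) at excitation 544 nm and emission 584 nm. Metabolic activity is normalised to the mean of vehicle controls.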

Jurkat [3] = test: confluency relative to DMSO, 18 h (ratio); higher = more viable
Procedure, shortened: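 Compound was applied at 1 nM–10 µM (log10 steps) for 18 h at 37 °C, 5% CO2 to Jurkat cells or to primary CD4+/CD8+ T cells that were naive or had been activated 48 h with CD3/CD28 Dynabeads. Suspension (100 µl) was then plated in 96-well plates with IncuCyte Cytotox Dye and alamarBlue and imaged hourly over 3 h (×10, five images per well). Confluency was calculated from the IncuCyte phase-contrast images using the Basic Analyzer and normalised to the mean of the control wells.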

Structure (SMILES)	cytotoxicity (Jurkat [1]; 1 nM)	cytotoxicity (Jurkat [1]; 10 nM)	cytotoxicity (Jurkat [1]; 100 nM)	cytotoxicity (Jurkat [1]; 1000 nM)	cytotoxicity (Jurkat [1]; 10000 nM)	metabolic activity (Jurkat [2]; 1 nM)	metabolic activity (Jurkat [2]; 10 nM)	metabolic activity (Jurkat [2]; 100 nM)	metabolic activity (Jurkat [2]; 1000 nM)	metabolic activity (Jurkat [2]; 10000 nM)	confluency (Jurkat [3]; 1 nM)	confluency (Jurkat [3]; 10 nM)	confluency (Jurkat [3]; 100 nM)	confluency (Jurkat [3]; 1000 nM)	confluency (Jurkat [3]; 10000 nM)
Cc1nc(Nc2ncc(C(=O)Nc3c(C)cccc3Cl)s2)cc(N2CCN(CCO)CC2)n1 [Dasatinib]	0.993	0.967	0.979	0.994	0.882	1.07	1.07	1.01	0.989	0.845	0.949	0.946	0.958	0.965	0.91
CCC(C)(Nc1ccnc(-c2c[nH]c3ncccc23)n1)C(=O)NCC(F)(F)F (stereo not given) [Decernotinib]	1.1	1.09	1.01	1.04	1.03	1.08	1.08	1.02	1.05	1.07	1.03	1.03	0.996	0.993	0.96
Nc1ncn(C2CC(O)C(CO)O2)c(=O)n1 (stereo not given) [Decitabine]	0.966	0.964	0.922	0.869	0.862	1.05	1.04	1.02	0.948	0.867	1.02	1.01	0.986	0.972	0.939
CCc1cnn2c(NCc3ccc[n+]([O-])c3)cc(N3CCCCC3CCO)nc12 (stereo not given) [Dinaciclib]	0.926	1.03	0.821	0.989	1.09	0.162	0.147	0.13	0.139	0.128	0.988	1.02	0.864	0.871	1.16
Cn1cc(-c2ccc(S(=O)(=O)n3ccc(C=CC(=O)Nc4ccccc4N)c3)cc2)cn1 [Domatinostat]	0.906	0.925	0.886	1.06	0.636	1.1	1.12	1.03	0.922	0.704	0.879	0.91	0.901	1.03	0.63
COc1cccc2c1C(=O)c1c(O)c3c(c(O)c1C2=O)CC(O)(C(=O)CO)CC3OC1CC(N)C(O)C(C)O1 (stereo not given) [Doxorubicin]	1.05	0.983	0.967	0.871	0.618	1.09	0.901	0.89	0.823	0.342	1.04	0.98	0.995	0.993	1.07
Nc1ccccc1NC(=O)c1ccc(CNC(=O)OCc2cccnc2)cc1 [Entinostat]	1.09	0.937	0.912	0.891	1.01	0.904	0.811	0.957	0.923	0.727	1.04	0.967	0.939	0.906	0.947
COC1CC2CCC(C)C(O)(O2)C(=O)C(=O)N2CCCCC2C(=O)OC(C(C)CC2CCC(OCCO)C(OC)C2)CC(=O)C(C)C=C(C)C(O)C(OC)C(=O)C(C)CC(C)C=CC=CC=C1C (stereo not given) [Everolimus]	0.853	0.843	0.947	0.996	0.893	0.773	0.935	0.975	0.958	0.981	0.88	0.877	0.969	1.06	0.906
COc1ccc(-c2nc(N3CCOCC3)c3sc(CN(C)c4ncc(C(=O)NO)cn4)cc3n2)cn1 [Fimepinostat]	0.792	1.09	1.05	1.12	0.892	0.731	0.914	0.796	0.772	0.42	0.995	1.12	1.2	1.31	1.23
COc1cc(Nc2ncc(F)c(Nc3ccc4c(n3)N(COP(=O)(O)O)C(=O)C(C)(C)O4)n2)cc(OC)c1OC [Fostamatinib]	1.06	1.05	0.951	0.893	0.783	1.21	1.23	1.1	1.01	0.925	1	0.995	0.961	0.911	0.821
CCNC(=O)Nc1ccc(-c2nc3c(c(N4CCOCC4C)n2)CCN(C2COC2)C3)cc1 (stereo not given) [GDC-0349]	0.991	0.972	0.947	0.887	0.78	0.925	0.919	0.886	0.841	0.798	0.992	0.981	0.955	0.932	0.873
COC1=C2CC(C)CC(OC)C(O)C(C)C=C(C)C(OC(N)=O)C(OC)C=CC=C(C)C(=O)NC(=CC1=O)C2=O (stereo not given) [Geldanamycin]	0.946	0.982	0.745	0.815	0.798	0.985	0.95	0.767	0.567	0.7	0.963	1.02	0.786	0.971	0.975
Nc1ccn(C2OC(CO)C(O)C2(F)F)c(=O)n1 (stereo not given) [Gemcitabine]	0.927	1.01	0.921	0.651	0.602	1	1.07	0.61	0.712	0.724	0.916	0.993	1.04	0.732	0.69
CCN(CC)Cc1ccc2cc(COC(=O)Nc3ccc(C(=O)NO)cc3)ccc2c1 [Givinostat]	1.15	1.01	1.06	1.03	1.04	0.902	0.981	0.969	0.845	0.762	1.05	0.98	1.05	1.18	1.2
COc1ccc(S(=O)(=O)N(C(C)=O)c2ccccc2C=Cc2cc[n+]([O-])cc2)cc1 [HMN-214]	1.11	0.94	0.954	0.982	0.602	1.11	0.973	0.813	0.779	0.503	0.983	0.99	0.993	0.979	0.694
NC1CCC(NC2CC2c2ccccc2)CC1 (stereo not given) [Iadademstat]	0.988	0.933	0.928	1.14	1.15	0.93	0.857	0.737	1.09	0.95	1.01	0.967	1.02	1.03	1.05
O=C1CCC(N2Cc3c(OCc4ccc(CN5CCOCC5)cc4)cccc3C2=O)C(=O)N1 (stereo not given) [Iberdomide]	0.885	0.749	0.877	0.796	0.865	0.987	0.949	1.02	1.11	1.21	0.898	0.805	0.811	0.8	0.823
CCC(Nc1ncnc2nc[nH]c12)c1nc2cccc(F)c2c(=O)n1-c1ccccc1 (stereo not given) [Idelalisib]	1.05	1.08	1.09	0.927	1	0.825	0.959	0.958	0.983	0.993	1.07	1.09	1.1	0.986	1.07
CC(C)CC(NC(=O)CNC(=O)c1cc(Cl)ccc1Cl)B(O)O (stereo not given) [Ixazomib]	0.958	1	1.03	0.682	0.631	0.928	1.04	0.924	0.382	0.121	0.945	0.97	1.12	0.922	1.09
Cc1cc(C)cc(C(=O)NOCCCCCC(=O)NO)c1 [LMK235]	0.947	0.991	1.08	1.04	1.26	0.997	0.979	1.04	0.905	0.694	0.982	1.03	1.06	1.16	1.3
Nc1cccc2c1CN(C1CCC(=O)NC1=O)C2=O (stereo not given) [Lenalidomide]	0.945	0.905	0.96	0.912	0.892	0.931	0.895	0.809	0.905	0.96	0.996	0.912	0.993	0.96	0.93
COc1cc(C)[nH]c(=O)c1CNC(=O)c1c(C)n(C(C)C2CCN(CC(F)(F)F)CC2)c2ccccc12 (stereo not given) [Lirametostat]	1	1	1.03	0.972	0.892	1.01	1.02	1.01	1.02	0.856	1.01	1.03	1.02	0.984	0.929
CC(C)CC(C=O)NC(=O)C(CC(C)C)NC(=O)C(CC(C)C)NC(=O)OCc1ccccc1 (stereo not given) [MG-132]	0.953	0.939	0.989	0.471	0.461	0.799	0.84	0.938	0.359	0.11	1.01	0.99	1.02	0.605	0.69
O=C(O)C1(Cc2cccc(Nc3nccs3)n2)CCC(Oc2cccc(Cl)c2F)CC1 (stereo not given) [MK-5108]	0.966	1.05	0.922	0.881	0.932	1.02	1.05	0.922	0.763	0.756	1.01	1.02	0.89	0.865	0.868
O=C(O)c1ccc(Nc2ncc3c(n2)-c2ccc(Cl)cc2C(c2c(F)cccc2F)=NC3)cc1 [MLN-8054]	0.913	1.02	0.967	0.812	0.623	0.971	0.993	0.955	0.913	0.558	0.953	1.06	1.03	0.879	0.791
CN(Cc1cnc2nc(N)nc(N)c2n1)c1ccc(C(=O)NC(CCC(=O)O)C(=O)O)cc1 (stereo not given) [Methotrexate]	1.05	0.897	0.666	0.571	0.585	1.12	1.08	1	0.865	0.746	0.943	0.828	0.619	0.576	0.603
CNC(=O)c1nn(C)c2c1C(C)(C)Cc1cnc(Nc3ccc(N4CCN(C)CC4)cc3)nc1-2 [Milciclib]	0.986	0.958	0.956	0.794	0.897	1.05	0.965	0.953	0.684	0.809	1.01	0.985	1.01	0.969	1.01
Nc1ccccc1NC(=O)c1ccc(CNc2nccc(-c3cccnc3)n2)cc1 [Mocetinostat]	0.997	1.01	0.975	0.726	0.636	0.892	0.841	0.822	0.747	0.3	1	1.02	1	0.76	0.886
CCNC(=O)CC1N=C(c2ccc(Cl)cc2)c2cc(OC)ccc2-n2c(C)nnc21 (stereo not given) [Molibresib]	0.992	1	1.07	0.955	0.848	0.916	1.06	1.18	0.878	0.887	1.02	1.03	1.03	1	0.879
